The results in this text go back to patent publication US8518958B2, “Pyrido [2,3-D] pyrimidines and their use as kinase inhibitors” (Forma Therapeutics, Inc., priority 2006, dated 2013).

One experiment concerns the target B-Raf delta1-415 (Homo sapiens, UniProt P15056). Nature of the experiment: B-Raf kinase inhibition (MAPH filter plate, 33P-ATP, MEK1 substrate). The following applies: read-out: Biochemical IC50 B-Raf. The gist of the method: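 Radiometric filter-binding assay with B-Raf delta1-415 at a level giving 50% turnover, MEK1 substrate and 33P-ATP (12.5 μCi/ml) in 20 mM Mops pH 7.0 with Mg/Mn, 1 h at room temperature. Inhibitor dilution series from 10 μM; EDTA-stopped reactions captured on phosphocellulose filters, counted by scintillation for IC50.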

Experiment [1] concerns the target C-Raf Raf-1 (truncated), active (Homo sapiens, UniProt P04049, Y340D/Y341D). Description: C-Raf kinase inhibition (MAPH assay / IMAP assay). The following applies: read-out: Biochemical IC50 C-Raf. The text has this:
We characterized the in vitro inhibitory activity against protein kinases of compounds of the present invention by determining their IC50 values (see Table 2).
Kinase: C-Raf Raf-1 (truncated), active (Upstate; cat. no. 14-352)
Reaction Temperature: room temperature
Assay Plate: 96 well U bottom plate (Greiner, 650161)
MultiScreen-PH Plate: 96 well MAPH Filter Plates (Millipore, MAPHNOB50)
Filter Washing Solution: 0.75% H3PO4
Scintillation Liquid: Supermix Liquid Scintillator (PerkinElmer, 1200-439)
Negative Control (C−): 100 mM EDTA, no inhibitor
Positive Control (C+): no inhibitor
Reaction Buffer (Final Concentration):
Final Assay Concentrations:
Kinase: Use kinase conc. yielding 10% ATP turnover as determined in titration experiment.
Adenosine 5′-[γ-^33P]triphosphate: 12.5 μCi/ml (Amersham Biosciences, BF1000)
Substrate: Myelin Basic Protein 57.8 μM (Invitrogen, 13228-010)
Pipetting Sequence: • 1) Add 10 μl 4-fold concentrated substrate+4-fold concentrated ATP in 3-fold concentrated reaction buffer to each well of assay plate • 2) Add 10 μl […] concentrated inhibitor in 4% DMSO in H2O to each well except to C− and C+ wells (starting point: final inhibitor concentration 10 μM; IC50 determination based on dilution series) • 3) Add 10 μl 4% DMSO in H2O to C− and C+ wells • 4) Add 10 μl 500 mM EDTA in H2O to C− wells • 5) Add 10 μl 50 μCi/ml adenosine 5′-[γ-^33P]triphosphate in H2O to each well • 6) Add 10 μl […] concentrated kinase in Reaction Buffer to each well • 7) Incubate 1 hr at room temperature • 8) Add 10 μl 50 mM EDTA in H2O to each well except to C− wells • 9) Prepare MAPH plates by adding 200 μl 0.75% H3PO4 to each well • 10) Exhaust 0.75% H3PO4 using Millipore vacuum station • 11) Add 60 μl 0.75% H3PO4 to each well of MAPH filter plate • 12) Transfer 30 μl sample per well from assay plate to corresponding well of MAPH filter plate • 13) Incubate 30 min at room temperature • 14) Wash each well of MAPH filter plates 3× with 200 μl 0.75% H3PO4 using Millipore vacuum station • 15) Add 20 μl scintillation liquid to each well of MAPH filter plate • 16) Seal MAPH filter plate • 17) Store MAPH filter plate 30 min in darkness • 18) Quantify radioactivity using scintillation counter (MicroBeta, Perkin-Elmer)
Reaction Volume: 8.0108 μl
IMAP Incubation Time: 60 min
Assay Plate: 384 well U bottom, PP, black, low volume (Corning, 3676)
Compound Plate: 384 well U bottom, PS (Falcon, 3995)
IMAP Binding Buffer A: Molecular Devices, R7282
IMAP Binding Buffer B: Molecular Devices, R7283
IMAP Binding Reagent: Molecular Devices, R7207
Negative Control (C−): no kinase, no inhibitor
Reation buffer: 20 mM Hepes, pH 7.5 • 1 mM DTT • 10 mM MnCl2 • 0.01% Brij35
Kinase: Kinase conc. yielding 50% substrate turnover as determined in titration experiment • c-Raf (Upstate 14-352)
Substrate: 5F1-SGQLIDSMANSFV-NH2 400 nM (jpt Peptide Technologies GmbH, Berlin, Germany)
IMAP Binding Solution: 75% IMAP Binding Buffer A • 25% IMAP Binding Buffer B • IMAP Binding Reagent 1:800
Pipetting Sequence: • 1) Add 6 μl 1.33-fold concentrated substrate+1.33-fold concentrated ATP in 1-fold concentrated reaction buffer to each well of assay plate • 2) Add 10.8 nl 740-fold concentrated inhibitor in 100% DMSO to each well except to C− and C+ wells using pintool (CyBio, Jena, Germany) (starting point: final inhibitor concentration 10 μM; IC50 determination based on dilution series) • 3) Add 10.8 nl 100% DMSO to C− and C+ wells using pintool • 4) Add 2 μl reaction buffer to C− wells • 5) Add 2 μl 4-fold concentrated kinase in reaction buffer to each well except C− wells • 6) Incubate according to reaction time at room temperature • 7) Add 15 μl IMAP binding solution to each well • 8) Incubate according to IMAP incubation time at room temperature • 9) Measure fluorescence polarization (Analyst GT, Molecular Devices)

The test system of a further experiment is HT-29 tumor cells. Nature of the experiment: Anti-proliferative activity, SRB assay. The experiment is classed as cell-based, human. The following applies: Homo sapiens, HT-29, 72 h, 72 hours exposure, read-out: CELLULAR IC50 HT-29. The gist of the method:
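Cells at 3,000-15,000/well, plated 24 h before compound, exposed to a concentration range for 72 hours. Proliferation measured by SRB staining after cold TCA fixation, absorbance at OD570; IC50 estimated from % inhibition versus DMSO-treated cells.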
(In general: Sulforhodamine B stains cellular protein and so reports cell mass.)

Structures are written as SMILES.

Sequence of B-Raf delta1-415 (P15056 416-766): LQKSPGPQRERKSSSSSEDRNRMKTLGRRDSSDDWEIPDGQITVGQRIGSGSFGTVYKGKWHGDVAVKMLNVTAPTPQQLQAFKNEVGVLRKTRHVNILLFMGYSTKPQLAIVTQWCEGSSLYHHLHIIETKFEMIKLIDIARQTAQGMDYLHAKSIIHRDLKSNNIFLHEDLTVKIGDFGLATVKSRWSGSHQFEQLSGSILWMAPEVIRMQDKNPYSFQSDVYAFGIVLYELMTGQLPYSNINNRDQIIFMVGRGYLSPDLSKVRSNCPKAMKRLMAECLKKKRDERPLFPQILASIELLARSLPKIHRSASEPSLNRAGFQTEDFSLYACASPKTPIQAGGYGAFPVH
Sequence of C-Raf Raf-1 (truncated), active (P04049 306-648 Y340D/Y341D): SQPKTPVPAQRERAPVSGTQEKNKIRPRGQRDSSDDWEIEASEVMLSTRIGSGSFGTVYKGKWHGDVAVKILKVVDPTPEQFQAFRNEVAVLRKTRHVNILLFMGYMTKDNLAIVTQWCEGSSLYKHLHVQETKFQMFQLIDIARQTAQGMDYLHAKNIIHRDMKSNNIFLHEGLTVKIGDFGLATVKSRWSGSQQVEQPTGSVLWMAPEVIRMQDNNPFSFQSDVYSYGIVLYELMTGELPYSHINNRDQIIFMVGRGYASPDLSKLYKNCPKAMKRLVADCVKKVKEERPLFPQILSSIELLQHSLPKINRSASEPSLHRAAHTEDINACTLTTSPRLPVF

`COn1c(=O)c(-c2ccccc2Cl)cc2cnc(Nc3cccc(S(N)(=O)=O)c3)nc21` [Compound 6, 6-(2-Chlorophenyl)-8-methoxy-2-(3-sulfamoylphenylamino)-pyrido[2,3-d]pyrimidin-7-one]: the figures for the half-maximal inhibitory concentration (IC50) (on B-Raf delta1-415; in experiment [1]; in the experiment on HT-29 tumor cells) were under 500 nM, under 100 nM and under 1000 nM, respectively.

With `COc1cccc(Nc2ncc3cc(-c4c(F)cccc4Cl)c(=O)n(OC[C@@H](O)CO)c3n2)c1` [Compound 75, 6-(2-Chloro-6-fluorophenyl)-8-(2-(S)-2,3-dihydroxypropyl)oxy-2-(3-methoxyphenyl)amino-pyrido[2,3-d]pyrimidin-7-one], the IC50 on B-Raf delta1-415 is under 100 nM; in experiment [1], under 100 nM; in the experiment with HT-29 tumor cells, under 1000 nM.

Take `CC(=O)NCCCOn1c(=O)c(-c2c(Cl)cccc2Cl)cc2cnc(Nc3ccccc3)nc21` [Compound 57, 8-(3-Acetylaminopropyl)oxy-6-(2,6-dichlorophenyl)-2-phenylamino-pyrido[2,3-d]pyrimidin-7-one]: the concentration for half-maximal inhibition (IC50) is under 1000 nM on B-Raf delta1-415, under 100 nM in experiment [1] and under 1000 nM in the experiment with HT-29 tumor cells.

For `COn1c(=O)c(-c2cc(NC(=O)C(C)C)ccc2Cl)cc2cnc(Nc3ccccc3)nc21` [Compound 32], the values for the IC50 (at B-Raf delta1-415; in experiment [1]; in the experiment with HT-29 tumor cells) were over 1000 nM, under 100 nM and under 10000 nM, respectively.

For the compound `COn1c(=O)c(-c2c(C)cccc2C)cc2cnc(Nc3ccc(N4CCN(C)CC4)cc3)nc21` [Compound 38, 6-(2,6-Dimethylphenyl)-8-methoxy-2-(4-(4-methylpiperazino)-phenylamino)-pyrido[2,3-d]pyrimidin-7-one], the half-maximal inhibitory concentration (IC50) is under 100 nM on B-Raf delta1-415, under 100 nM in experiment [1] and under 1000 nM in the experiment on HT-29 tumor cells.

Turning to `COCCOn1c(=O)c(-c2ccccc2Cl)cc2cnc(Nc3ccccc3)nc21` [Compound 20], the IC50 on B-Raf delta1-415 is under 500 nM; in experiment [1], under 100 nM; in the experiment with HT-29 tumor cells, under 1000 nM.

As for `COn1c(=O)c(-c2ccccc2)cc2cnc(Nc3cccc(CO)c3)nc21` [Compound 43, 2-(3-Hydroxymethylphenylamino)-8-methoxy-6-phenyl-pyrido[2,3-d]pyrimidin-7-one], the values for the IC50 (on B-Raf delta1-415; in experiment [1]; with HT-29 tumor cells) were under 5000 nM, under 100 nM and under 10000 nM, respectively.

As for `COn1c(=O)c(-c2cc(NC(=O)c3ccccc3)ccc2Cl)cc2cnc(Nc3ccccc3)nc21` [Compound 29], the IC50 was under 500 nM at B-Raf delta1-415, under 100 nM in experiment [1] and under 10000 nM with HT-29 tumor cells.

For `COc1cccc(Nc2ncc3cc(-c4ccccc4Cl)c(=O)n(OC)c3n2)c1` [Compound 7, 6-(2-Chlorophenyl)-8-methoxy-2-(3-methoxyphenylamino)-pyrido[2,3-d]pyrimidin-7-one], the results for the IC50 (at B-Raf delta1-415; in experiment [1]; in the experiment on HT-29 tumor cells) were under 1000 nM, under 100 nM and under 1000 nM, respectively.

As for `CCOn1c(=O)c(-c2c(F)cccc2Cl)cc2cnc(Nc3ccc(N4CCN(C)CC4)cc3)nc21` [Compound 51, 6-(2-Chloro-6-fluorophenyl)-8-ethoxy-2-(4-(4-methylpiperazino)-phenylamino)-pyrido[2,3-d]pyrimidin-7-one], the 50% inhibitory concentration (IC50) at B-Raf delta1-415 was under 100 nM; in experiment [1], under 100 nM; in the experiment on HT-29 tumor cells, under 1000 nM.

`NCCOCCOn1c(=O)c(-c2c(Cl)cccc2Cl)cc2cnc(Nc3ccccc3)nc21` [Compound 58, 8-(2-(2-Aminoethyloxy)ethyl)oxy-6-(2,6-dichlorophenyl)-2-phenylamino-pyrido[2,3-d]pyrimidin-7-one]: the values for the 50% inhibitory concentration (IC50) (on B-Raf delta1-415; in experiment [1]; in the experiment on HT-29 tumor cells) were under 500 nM, under 500 nM and under 1000 nM, respectively.

Regarding `COn1c(=O)c(-c2c(Cl)cccc2Cl)cc2cnc(Nc3cccc(S(=O)(=O)CCO)c3)nc21` [Compound 10, 6-(2,6-Dichlorophenyl)-8-methoxy-2-(3-(2-hydroxyethylsulfonyl)phenylamino)-pyrido[2,3-d]pyrimidin-7-one], the half-inhibitory concentration (IC50) on B-Raf delta1-415 is under 100 nM; in experiment [1] it was under 100 nM; in the experiment on HT-29 tumor cells, under 1000 nM.

Regarding `NCCCOn1c(=O)c(-c2c(Cl)cccc2Cl)cc2cnc(Nc3ccccc3)nc21` [Compound 55, 8-(3-Aminopropyl)oxy-6-(2,6-dichlorophenyl)-2-phenylamino-pyrido[2,3-d]pyrimidin-7-one], the IC50 at B-Raf delta1-415 was under 500 nM; in experiment [1] it was under 500 nM; in the experiment with HT-29 tumor cells, under 1000 nM.

Consider `COn1c(=O)c(-c2cccc(NC(=O)c3ccccc3)c2Cl)cc2cnc(Nc3ccccc3)nc21` [Compound 28], for which the IC50 at B-Raf delta1-415 is over 10000 nM; in experiment [1], under 100 nM; with HT-29 tumor cells, under 1000 nM.

In the case of `COn1c(=O)c(-c2c(Cl)cccc2Cl)cc2cnc(Nc3cccc(CO)c3)nc21` [Compound 1, 6-(2,6-Dichlorophenyl)-2-(3-hydroxymethylphenylamino)-8-methoxy-pyrido[2,3-d]pyrimidin-7-one], the values for the IC50 (on B-Raf delta1-415; in experiment [1]; with HT-29 tumor cells) were under 100 nM, under 100 nM and under 1000 nM, respectively.

Consider `COn1c(=O)c(-c2cc(NC(=O)c3cccc(Cl)c3)ccc2Cl)cc2cnc(Nc3ccccc3)nc21` [Compound 36], for which the IC50 on B-Raf delta1-415 is over 1000 nM; in experiment [1], under 100 nM; with HT-29 tumor cells, under 10000 nM.

`CNCCOn1c(=O)c(-c2c(Cl)cccc2Cl)cc2cnc(Nc3cccc(OC)c3)nc21` [Compound 74, 6-(2,6-Dichlorophenyl)-8-(2-methylaminoethyl)oxy-2-(3-methoxyphenyl)amino-pyrido[2,3-d]pyrimidin-7-one]: the IC50 on B-Raf delta1-415 is under 100 nM; in experiment [1], under 500 nM; in the experiment with HT-29 tumor cells it was under 1000 nM.

For `COn1c(=O)c(-c2ccc(Cl)c(Cl)c2)cc2cnc(Nc3cccc(S(N)(=O)=O)c3)nc21` [Compound 64, 2-(3-Aminosulfonlyphenyl)-amino-6-(3,4-dichlorophenyl)-8-methoxy-pyrido[2,3-d]pyrimidin-7-one], the half-maximal inhibitory concentration (IC50) on B-Raf delta1-415 is under 500 nM; in experiment [1] it was under 500 nM; in the experiment on HT-29 tumor cells it was under 10000 nM.

Consider `COn1c(=O)c(-c2ccc(Cl)cc2Cl)cc2cnc(Nc3ccc(N4CCN(C)CC4)cc3)nc21` [Compound 19, 6-(2,4-Dichlorophenyl)-8-methoxy-2-(4-(4-methylpiperazino)-phenylamino)-pyrido[2,3-d]pyrimidin-7-one], for which the IC50 at B-Raf delta1-415 was under 500 nM; in experiment [1], under 100 nM; in the experiment on HT-29 tumor cells, under 1000 nM.

The IC50 is the concentration needed to halve the response being measured.
